Results as given in US20090233999A1, “COMPOSITIONS AND THERAPEUTIC METHODS INVOLVING ISOFLAVONES AND ANALOGUES THEREOF” (NOVOGEN RESEARCH PTY LTD, priority 1999, published 2009).

How the values were obtained:
INFγ = INFγ production by murine splenocytes; assay type: cell-based, mouse; conditions: 10 μM; Con A
Protocol: Male Skh-1 (hairless) mice, approximately six weeks old were killed by cervical dislocation. Single cell suspensions were made from the spleen and erythrocytes were lysed in buffer (0.14M NH4Cl, 17 mM Tris, pH 7.2). The remaining splenocytes were cultured in RPMI-1640 (Gibco) supplemented with 10% (v:v) FBS, 2 mM L-glutamine, pen/strep and 50 μM 2-mercaptoethanol. Splenocytes were added to quadruplicate wells containing either the T cell mitogen concanavalin A (Con A, Sigma-Aldrich—0. 4 μg/well), the B-cell mitogen LPS (Sigma-Aldrich—1 μg/well) or no mitogen, as well as test compound at a concentration of 10 μM in DMSO. Samples were analysed after a 3 day incubation at 37° C. in 5% CO2 in air. Cell viability was assessed by adding MTT to each well, incubating for a further 4 hrs and then developing colour with 0.04N HCl in isopropanol. Supernatant samples were frozen at −80° C. and IL-6, IFN-γ and TNFα were detected in triplicate using ELISA kits (BD Biosciences).

P-cadherin = experiment: UVB psoriasis model: immunohistochemical detection of P-cadherin; assay type: in vivo, mouse; conditions: 20 μM topical
Protocol: Groups of three Skh:hr-1 mice were exposed to 3×MEdD of UVB radiation, with and without topical treatment with 20 μM Cpd. 18, and were euthanased before and at 24, 48, 72 and 96 h after irradiation, and mid-dorsal skin samples were taken for histological fixation. The samples were fixed for 6 h in Histochoice (Amresco Solon, Ohio), then processed overnight in an automated formalin-ethanol-based system (Tissue Tek VIP; Bayer Diagnostics, Ferntree Gully, Australia) and embedded into paraffin blocks. Sections of 4 μm were cut onto silane-coated slides, de-waxed and rehydrated using xylene followed by graded aqueous ethanol solutions to PBS. Endogenous peroxidase activity of the sections was quenched with 3% H2O2 in methanol for 10 min at room temperature and washed 3 times with PBS. The sections were then blocked with 10% skim milk in PBS for 40 min at room temperature. […]
The stained sections were examined by light microscopy at 20× magnification and images were captured digitally with a Sony Hyper HAD colour video camera (Sony, Tokyo, Japan). Stain intensity was analysed using a Leica Q500 MC image processing and analysis system (Leica, Cambridge, UK) and semi-quantitated in arbitrary image analysis units as the average intensity of 15 sequential fields across the skin section for each of 3 mice per treatment group. […]

Cc1c(O)ccc2c1OCC(c1cccc(O)c1)=C2 [Cpd. 14, 3′,7-Dihydroxy-8-methylisoflav-3-ene]
melting point: 130 °C

Oc1ccc(C2=Cc3ccc(O)c(Br)c3OC2)cc1 [Cpd. 20, 4′,7-Dihydroxy-8-bromoisoflav-3-ene]
INFγ synthesis by T cells (INFγ): marked reduction

COc1ccc(C2=Cc3ccc(O)cc3OC2)cc1OC [Cpd. 18, 7-Hydroxy-3′,4′-dimethoxyisoflav-3-ene]
P-cadherin expression in the skin, treatment alone (P-cadherin; without UVB): no effect
reduction of UVB-induced P-cadherin positive cells (P-cadherin; 72 h, Skh:hr-1): approximately 50%
